Measurements taken from patent US10993951B2, “Fosfomycin formulation for parenteral administration” (priority 2016, dated 2021).
Values after ≈ are worked out from the molar mass of the structure shown. Like-named read-outs stand apart in the source and are kept apart here.

Key:
Test in all cases: MIC by tube dilution in microtiter plates, stored fosfomycin solution
Format in all cases: cell-based
Settings in all cases: read-out: minimal inhibitory concentration (MIC)
Escherichia coli AG 1215 = system: Escherichia coli AG 1215
Excerpt: (§1) The objective of the present investigation was to find out whether the antimicrobial activity of fosfomycin with a pH suitable for intravenous administration is maintained in a solvent suitable for intravenous use. For this, fosfomycin disodium (14.5 mmol sodium/g) and succinic acid were used to adjust the pH (0.025 grams of succinic acid per gram of fosfomycin).
(§2) A stock solution of 4 g of fosfomycin disodium and succinic acid (0.025 grams of succinic acid per gram of fosfomycin, corresponding to about 3 g of fosfomycin) in 10 ml distilled water was prepared and divided into 5 cryotubes at 2 ml each, and the solution was exposed at different temperatures as follows:
(§3) Aliquots of 2 ml of the sample were stored at −80° C., at refrigerator temperature (2-8° C.), at room temperature (20-25° C.), and at 45-65° C. until the test end. Another 2 ml of the stock solution were stored at refrigerator temperature (2-8° C.) and autoclaved before the tests at 125° C. for 30 minutes. After that, all samples were tested for their antimicrobioal activity.
(§4) To determine the antimicrobial activity of fosfomycin, the minimal inhibitory concentration (MIC) of the 4 mentioned bacteria strains was determined by a tube dilution method in microtiter plates using Mueller-Hinton broth. For the inoculation of the microtiter plates, the inoculum was adjusted to 1.5×104 germs/ml. The evaluation was made after 24 hours of incubation at 37° C.
(§5) Samples were taken, starting with 2,000 μg/ml test substance, diluted by a factor 2. Serial dilutions of 2,000 μg/ml to […] were prepared.

[1] = system: Staphylococcus aureus ATTC 33592
Excerpt: as §1, §2, §3, §4, §5

[2] = system: Staphylococcus aureus ATTC 49775
Excerpt: as §1, §2, §3, §4, §5

SMILES: C[C@@H]1O[C@@H]1P(=O)(O)O [Fosfomycin, fosfomycin]
- MIC (Escherichia coli AG 1215; AG1215, 0 h, storage temp. 4-8 °C, storage period 0 days): 62.5 µg/mL (≈ 453 µM)
- MIC (Escherichia coli AG 1215; AG1215, 0 h, storage temp. 20-25 °C, storage period 0 days): 250 µg/mL (≈ 1810 µM)
- MIC (Escherichia coli AG 1215; AG1215, 0 h, storage temp. 45-65 °C, storage period 0 days): 62.5 µg/mL (≈ 453 µM)
- MIC (Escherichia coli AG 1215; AG1215, 0 h, storage temp. −80 °C, storage period 0 days): 62.5 µg/mL (≈ 453 µM)
- MIC (Escherichia coli AG 1215; AG1215, 125 °C (refrigerator storage, autoclaved 30 minutes before tests), storage period 0 days): 125 µg/mL (≈ 905 µM)
- MIC (Escherichia coli AG 1215; AG1215, 125 °C (refrigerator storage, autoclaved 30 minutes before tests), storage period 19 days): 125 µg/mL (≈ 905 µM)
- MIC (Escherichia coli AG 1215; AG1215, 125 °C (refrigerator storage, autoclaved 30 minutes before tests), storage period 27 days): 62.5 µg/mL (≈ 453 µM)
- MIC (Escherichia coli AG 1215; AG1215, 125 °C (refrigerator storage, autoclaved 30 minutes before tests), storage period 59 days): 31.2 µg/mL (≈ 226 µM)
- MIC (Escherichia coli AG 1215; AG1215, 125 °C (refrigerator storage, autoclaved 30 minutes before tests), storage period 64 days): 62.5 µg/mL (≈ 453 µM)
- MIC (Escherichia coli AG 1215; AG1215, 125 °C (refrigerator storage, autoclaved 30 minutes before tests), storage period 92 days): 125 µg/mL (≈ 905 µM)
- MIC (Escherichia coli AG 1215; AG1215, 456 h, storage temp. 4-8 °C, storage period 19 days): 62.5 µg/mL (≈ 453 µM)
- MIC (Escherichia coli AG 1215; AG1215, 456 h, storage temp. 20-25 °C, storage period 19 days): 125 µg/mL (≈ 905 µM)
- MIC (Escherichia coli AG 1215; AG1215, 456 h, storage temp. 45-65 °C, storage period 19 days): 250 µg/mL (≈ 1810 µM)
- MIC (Escherichia coli AG 1215; AG1215, 456 h, storage temp. −80 °C, storage period 19 days): 125 µg/mL (≈ 905 µM)
- MIC (Escherichia coli AG 1215; AG1215, 648 h, storage temp. 20-25 °C, storage period 27 days): 31.2 µg/mL (≈ 226 µM)
- MIC (Escherichia coli AG 1215; AG1215, 648 h, storage temp. 45-65 °C, storage period 27 days): 31.2 µg/mL (≈ 226 µM)
- MIC (Escherichia coli AG 1215; AG1215, 648 h, storage temp. −80 °C, storage period 27 days): 62.5 µg/mL (≈ 453 µM)
- MIC (Escherichia coli AG 1215; AG1215, storage temp. 4-8 °C, storage period 92 days): 62.5 µg/mL (≈ 453 µM)
- MIC (Escherichia coli AG 1215; AG1215, storage temp. 20-25 °C, storage period 59 days): 31.2 µg/mL (≈ 226 µM)
- MIC (Escherichia coli AG 1215; AG1215, storage temp. 20-25 °C, storage period 64 days): 31.2 µg/mL (≈ 226 µM)
- MIC (Escherichia coli AG 1215; AG1215, storage temp. 20-25 °C, storage period 92 days): 125 µg/mL (≈ 905 µM)
- MIC (Escherichia coli AG 1215; AG1215, storage temp. 45-65 °C, storage period 59 days): 62.5 µg/mL (≈ 453 µM)
- MIC (Escherichia coli AG 1215; AG1215, storage temp. 45-65 °C, storage period 64 days): 62.5 µg/mL (≈ 453 µM)
- MIC (Escherichia coli AG 1215; AG1215, storage temp. 45-65 °C, storage period 92 days): 125 µg/mL (≈ 905 µM)
- MIC (Escherichia coli AG 1215; AG1215, storage temp. −80 °C, storage period 59 days): 15.6 µg/mL (≈ 113 µM)
- MIC (Escherichia coli AG 1215; AG1215, storage temp. −80 °C, storage period 64 days): 62.5 µg/mL (≈ 453 µM)
- MIC (Escherichia coli AG 1215; AG1215, storage temp. −80 °C, storage period 92 days): 62.5 µg/mL (≈ 453 µM)
- MIC ([1]; ATTC33592, 0 h, storage temp. 20-25 °C, storage period 0 days): 7.8 µg/mL (≈ 56.5 µM)
- MIC ([1]; ATTC33592, 0 h, storage temp. 45-65 °C, storage period 0 days): 15.6 µg/mL (≈ 113 µM)
- MIC ([1]; ATTC33592, 0 h, storage temp. −80 °C, storage period 0 days): 15.6 µg/mL (≈ 113 µM)
- MIC ([1]; ATTC33592, 125 °C (refrigerator storage, autoclaved 30 minutes before tests), storage period 0 days): 15.6 µg/mL (≈ 113 µM)
- MIC ([1]; ATTC33592, 125 °C (refrigerator storage, autoclaved 30 minutes before tests), storage period 19 days): 31.2 µg/mL (≈ 226 µM)
- MIC ([1]; ATTC33592, 125 °C (refrigerator storage, autoclaved 30 minutes before tests), storage period 31 days): 7.8 µg/mL (≈ 56.5 µM)
- MIC ([1]; ATTC33592, 456 h, storage temp. 20-25 °C, storage period 19 days): 15.6 µg/mL (≈ 113 µM)
- MIC ([1]; ATTC33592, 456 h, storage temp. 45-65 °C, storage period 19 days): 31.2 µg/mL (≈ 226 µM)
- MIC ([1]; ATTC33592, 456 h, storage temp. −80 °C, storage period 19 days): 7.8 µg/mL (≈ 56.5 µM)
- MIC ([1]; ATTC33592, storage temp. 20-25 °C, storage period 31 days): 7.8 µg/mL (≈ 56.5 µM)
- MIC ([1]; ATTC33592, storage temp. 45-65 °C, storage period 31 days): 7.8 µg/mL (≈ 56.5 µM)
- MIC ([1]; ATTC33592, storage temp. −80 °C, storage period 31 days): 7.8 µg/mL (≈ 56.5 µM)
- MIC ([2]; ATTC49775, 0 h, storage temp. 20-25 °C, storage period 0 days): 3.9 µg/mL (≈ 28.2 µM)
- MIC ([2]; ATTC49775, 0 h, storage temp. 45-65 °C, storage period 0 days): 7.8 µg/mL (≈ 56.5 µM)
- MIC ([2]; ATTC49775, 0 h, storage temp. −80 °C, storage period 0 days): 7.8 µg/mL (≈ 56.5 µM)
- MIC ([2]; ATTC49775, 125 °C (refrigerator storage, autoclaved 30 minutes before tests), storage period 0 days): 15.6 µg/mL (≈ 113 µM)
- MIC ([2]; ATTC49775, 125 °C (refrigerator storage, autoclaved 30 minutes before tests), storage period 19 days): 7.8 µg/mL (≈ 56.5 µM)
- MIC ([2]; ATTC49775, 125 °C (refrigerator storage, autoclaved 30 minutes before tests), storage period 31 days): 7.8 µg/mL (≈ 56.5 µM)
